Measurements as given in patent publication US12662688B2, “Site-selective deuteration of amino acids through dual protein catalysis” (Wisconsin Alumni Research Foundation, priority 2022, dated 2026).

Assays:
DsaD/E complex [1] = assay: Analytical-scale Cα/Cβ H/D exchange with purified DsaD and DsaE; type: biochemical, Streptomyces scopuliridis; details: 10 mM substrate, 5 μM DsaD, 50 μM DsaE (10:1), 37° C., 8 h
Description: FIGS. 3A-3C. Optimization of H/D exchange reactions and evaluation of the substrate scope. FIG. 3A. Optimization of Cβ-deuteration by increasing equivalents of partner protein DsaE. FIG. 3B. Evaluation of substrate scope of dual-protein-catalyzed Cα/Cβ deuteration under optimized conditions. FIG. 3C. UV-visible spectroscopy used to evaluate non-native substrate binding to DsaD. Reaction conditions: 10 mM amino acid substrate, 50 μM DsaE, 5 μM DsaD (10:1), 50 mM sodium phosphate (pD 8.4), 0.1 mM PLP, D2O, 37° C., 8 h. Reactions performed in duplicate, and percentage isotope incorporation is reported as the average of the replicates.
General procedure analytical scale deuteration reactions: α/β deuteration reactions were performed as follows. A 1 mL Eppendorf tube was charged with amino acid (10-20 mM final concentration), Na3PO4 buffer pD 8.4 (50 mM final concentration), PLP (100 μM final concentration), purified enzymes or appropriate lysate and D2O and to the appropriate final volume (typically 50 μL). Reactions were carried out at 37° C. for 8 h and quenched by the addition of 3 volumes of acetonitrile. Precipitated biomolecules were pelleted by centrifugation (16,000×g, 10 min) and samples were processed as described below.
(§1) Marfey's derivatization of analytical scale reactions: Derivatization of the resulting analytical scale product mixture (to increase overall signal and enable reverse phase chromatographic analysis) was achieved by treatment with Marfey's reagent^2 (1-fluoro-2-4-dinitrophenyl-5-L-alanine amide, L-FDAA) using the following protocol. 25 μL of quenched reaction mix (final amine concentration, 1.6 mM) was added to an Eppendorf tube with 50 μL of 15 mM NaHCO3 (final concentration, 5 mM) and 75 μL of 5 mM L-FDAA (final concentration, 2.5 mM). Derivatization reactions were carried out for 10-12 h before quenching with 150 μL of 60 mM HCl dissolved in acetonitrile. Final reaction analysis was carried out by UPLC-DAD-MS and quantitation as described below.
(§2) Quantitation of deuteration in analytical scale reactions: Deuteration reactions were analyzed by UPLC-DAD-MS with single ion recording (SIR) channels set to record a spectrum with the appropriate isotopic mass in positive mode. The area under the curve of recorded SIR peaks was obtained and normalized to account for natural isotopic abundance distributions (e.g. ^13C, ^15N, ^2H, ^34S, etc). Percent deuterium incorporation was calculated by the formula below. These measurements were carried out in an iterative fashion to measure Cα deuteration and Cβ deuteration.

DsaD = DsaD (Streptomyces scopuliridis, UniProt A0A0D5CCB2); assay: UV-vis spectroscopy of amino acid binding to DsaD; details: 20 μM DsaD, pH 8.0, 25° C.
Description: UV-Vis Spectroscopy: Data were collected between 600 and 300 nm on a UV-2600 Shimadzu spectrophotometer (Shimadzu, Kyoto, Japan) with a semi-micro quartz cuvette (Starna Cells, Atascadero, California, USA) at 25° C. DsaD stock solutions were diluted to 20 μM in 50 mM sodium phosphate pH 8.0. For observation of substrate binding, amino acids were added at concentrations ranging from 2.5-10 mM. Spectra from 600-300 nm were collected after a 2-minute incubation period. Amino acid stocks were prepared as 100 mM stocks in deionized water.

DsaD/E complex [2] = assay: Preparative-scale Cα/Cβ-deuteration with DsaD and DsaE clarified lysates in D2O; type: biochemical, Streptomyces scopuliridis
Description: FIG. 5. ^1H NMR analysis of site-selective deuteration of L-Leu. Reaction conditions: 20 mM L-Leu 2.5% v/v DsaD clarified lysate, 2.5% v/v DsaE clarified lysate (when needed), 50 mM sodium phosphate (pD 8.4), 0.1 mM PLP, D2O (99.9% D).
FIG. 8. Preparative-scale and site-selective deuteration of amino acids. Conditions: 10-20 mM amino acid, 2.5% v/v DsaD clarified lysate, 2.5% v/v DsaE clarified lysate, 50 mM sodium phosphate (pD 8.4), 0.1 mM PLP, D2O (99.9%).
(§3) General procedure for milligram-scale biocatalytic deuteration: A 4-dram scintillation vial was charged with amino acid (10-20 mM final concentration), Na3PO4 buffer pD 8.4 (50 mM final concentration), PLP (100 μM final concentration), DsaD clarified cell lysate (2.5% v/v), DsaE clarified cell lysate (if applicable) (2.5% v/v), and D2O (or dH2O) to the appropriate final volume. The reaction vessel was placed in an incubator at 37° C. for 16 h. Reaction progress was monitored by UPLC-MS. After reaction completion, the reaction mixture was quenched with an equivalent volume of acetone and centrifuged (4,000 rpm, 10 min) to remove denatured protein. Supernatant was transferred to a clean beaker, the decanted supernatant was concentrated to remove acetone by rotary evaporation and loaded onto a preparative reverse-phase C18 column pre-equilibrated with water. Purification was performed via gradient elution on an Isolera One Flash Purification system (Biotage). Fractions bearing product (confirmed by UPLC-MS sampling of fraction tubes) were pooled and dried by rotary evaporation. The product was then resuspended in a minimal quantity of water, transferred to a pre-weighed 20 mL vial, frozen, and lyophilized.

DsaD/E system = assay: Two-step Cα/Cβ deuteration then Cα deuterium washout with DsaD in H2O; type: biochemical, Streptomyces scopuliridis; details: after Cα washout with DsaD in water
Description: as §3
An initial reaction was performed with DsaD and DsaE to produce Cα,Cβ-deuterated L-Leu-2,3,3-d3 (25). Following reaction quenching with acetone, centrifugation to remove protein products, and removal of acetone and D2O via rotary evaporation, the dry crude product mixture was subjected to standard reaction conditions with DsaD in water. This reaction led to washout of the Cα deuterium, providing exclusively Cβ-deuterated L-Leu-3,3-d2 (44) with high levels of deuterium incorporation at Cβ (FIG. 5, 86% D incorporation and 98% ee). The site of H/D exchange in these reactions is dictated by the presence or absence of DsaE from the reaction conditions, enabling control of amino acid deuteration patterns.
We performed Cα/Cβ deuteration on a panel of amino acids, quenched the reactions and resubjected the crude product to Cα deuterium washout with DsaD in H2O. […]

DsaD/DsaE complex = DsaD/DsaE complex (Streptomyces scopuliridis, UniProt A0A0D5CCB2); assay: Steady-state kinetic analysis of H/D exchange of L-Ile by DsaD with partner protein DsaE; type: biochemical
Description: (§4) FIGS. 2A-2E. Steady-state kinetic analysis of H/D exchange by the Ile epimerization system. FIG. 2A. Steady-state kinetic analysis describing Cβ-deuteration^a of L-Ile under varied equivalents of partner enzyme DsaE. FIG. 2B. Steady-state kinetic analysis of Cβ-deuteration rates^a at a constant 1 mM L-Ile, measured against increasing equivalents of DsaE. FIG. 2C. Steady-state kinetic analysis of Cα-deuteration^a of L-Ile in the presence and absence of partner protein DsaE. FIG. 2D. Proposed mechanism of selective deuterium incorporation at Cα and Cβ catalyzed by dual protein catalysis. FIG. 2E. UV-visible spectrum of DsaD in the absence and presence of L-Ile.^a Measurement of initial rates was performed in duplicate at 24° C. Conditions: 0.1-10 mM L-Ile, 3 μM DsaD, 50 mM sodium phosphate (pD 8.4), and 0.1 mM PLP in D2O (99.9%). Proteins were exchanged into a 50 mM sodium phosphate-D2O (pD 8.4) solution prior to reaction initiation to minimize proton contamination (<1% H2O). Following quench with MeCN, crude reaction products were subjected to functionalization with Marfey's reagent (L-FDAA) to enable analysis by reverse-phase chromatography and quantification of isotope incorporation by mass spectrometry.
as §1, §2
Kinetic analysis of biocatalytic L-Ile deuteration: Initial rates of α- or β-deuteration were obtained by means of end-point assay using the quantitation protocol for analytical scale reactions as described above. All reagents were prepared in D2O (99.9% D) and protein stocks were dialyzed (3 exchanges over 3 h at 4° C.) into 50 mM sodium phosphate buffer dissolved in D2O (pD 8.4) using a slide-a-lyzer device with a 3,000 Da cutoff. Reactions were performed at 25° C. in 1 mL Eppendorf tubes. Michaelis constants (KM) for α- and β-deuteration of L-Ile were determined using the concentration range of 0.1-10 mM L-Ile using 3 μM DsaD. Partner protein (DsaE) concentrations were consistent within each experiment and separate experiments were performed using varied equivalents of partner protein (0-50 equiv). Initial velocities were measures in duplicate or triplicate for at least 6 different substrate concentrations for each set of conditions tested. Measurements of the impact of partner protein (DsaE) concentration on the initial rate of β-deuteration were carried out using 1 mM L-Ile, 3 μM DsaD and varying DsaE concentrations between 3 μM-600 μM (1-200 equiv). Under the minimal proton contamination conditions of this assay (99.9% D2O), Cα and Cβ deuteration are assumed to have occurred without back transfer to proton. The data were fit using the Michaelis-Menten equation implemented in Prism.

[3] = substrate: CC[C@H](C)[C@H](N)C(=O)O; assay: as above; type: biochemical, Streptomyces scopuliridis; details: pH 8.4
Description: as §4, §1
as §2, with “These measurements were carried out in an iterative fashion to measure Cα deuteration and Cβ deuteration.” left out
Kinetic analysis of biocatalytic L-Ile deuteration: Initial rates of α- or β-deuteration were obtained by means of end-point assay using the quantitation protocol for analytical scale reactions as described above. […] Michaelis constants (KM) for α- and β-deuteration of L-Ile were determined using the concentration range of 0.1-10 mM L-Ile using 3 μM DsaD. […]

[4] = DsaD and DsaE clarified lysates, D2O, 5% 1H-water
[5] = lower substrate loading (10 mM)

DsaD/DsaE complex, sequence (A0A0D5CBB6 entry or part of it, one chain of several): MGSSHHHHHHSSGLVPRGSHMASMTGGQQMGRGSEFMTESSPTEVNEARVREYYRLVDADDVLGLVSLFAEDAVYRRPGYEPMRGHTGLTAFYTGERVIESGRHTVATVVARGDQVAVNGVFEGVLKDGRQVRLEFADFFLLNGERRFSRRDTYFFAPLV

## N[C@@H](Cc1c[nH]c2ccccc12)C(=O)O [Trp, tryptophan]
DsaD/E complex [1]
  D-incorporation at Cα: underwent Cα-deuteration
  D-incorporation at Cβ: no Cβ-deuteration

## C[C@@H](O)[C@H](N)C(=O)O [Thr, threonine]
DsaD
  substrate binding to DsaD by UV-vis: no binding was observed
DsaD/E complex [1]
  Cα and Cβ D-incorporation: did not undergo any deuteration

## CSCC[C@H](N)C(=O)O [Met, methionine]
DsaD/E complex [1]
  D-incorporation at Cα: high levels of exchange
  D-incorporation at Cβ: moderate levels of D-incorporation

## [2H]C([2H])(C(C)C)[C@]([2H])(N)C(=O)O [L-Leu-2,3,3-d3]
DsaD/E complex [2]; [4]
  deuterium incorporation at Cα: 95%
  deuterium incorporation at Cβ: 86%

## CC[C@H](C)[C@H](N)C(=O)OC [methyl ester of Ile]
DsaD/E complex [1]
  Cα and Cβ D-incorporation: Neither of these substrates underwent deuteration

## N[C@@H](CO)C(=O)O [Ser]
DsaD/E complex [1]
  Cα and Cβ D-incorporation: did not undergo any deuteration

## COc1ccc(C[C@H](N)C(=O)O)cc1 [compound 34, (OMe)-L-Tyr]
DsaD/E complex [1]
  D-incorporation at Cα: 99%
  D-incorporation at Cβ: 74%

## [2H]C([2H])(c1ccccc1)[C@]([2H])(N)C(=O)O [L-Phe-2,3,3-d3]
DsaD/E complex [2]; [5]
  deuterium incorporation at Cα: 95%
  deuterium incorporation at Cβ: 85%

## CSC[C@H](N)C(=O)O [S-Me-Cys, S-methylcysteine]
DsaD/E complex [1]
  D-incorporation at Cα: high levels of exchange
  D-incorporation at Cβ: moderate levels of D-incorporation

## CC(C)CCN [isopentylamine]
DsaD/E complex [1]
  Cα and Cβ D-incorporation: Neither of these substrates underwent deuteration

## CO[C@H](C)[C@H](N)C(=O)O [compound 30, L-(OMe)-Thr]
DsaD
  substrate binding to DsaD by UV-vis: enables productive binding
DsaD/E complex [1]
  D-incorporation at Cα: high levels of deuteration
  D-incorporation at Cβ: moderate deuterium incorporation and scrambling of configuration

## [2H]C([2H])(C(C)C)[C@H](N)C(=O)O [L-Leu-3,3-d2]
DsaD/E system
  D incorporation at Cβ: 86%

B1: DsaE: small partner protein of aminotransferase DsaD, SEQ ID NO: 3, Streptomyces scopuliridis (protein, listed as Streptomyces scopuliridis)
chain: MTESSPTEVNEARVREYYRLVDADDVLGLVSLFAEDAVYRRPGYEPMRGHTGLTAFYTGERVIESGRHTVATVVARGDQVAVNGVFEGVLKDGRQVRLEFADFFLLNGERRFSRRDTYFFAPLV
modifications: DsaE
DsaD/DsaE complex; 1 mM L-Ile, 3 μM DsaD, initial rate of Cβ-deuteration vs DsaE, read-out: KM for the formation of the active DsaD/DsaE complex
  Km: 40 ± 5 µM
DsaD/DsaE complex; 1 mM L-Ile, 3 μM DsaD, 100:1 ratio
  DsaE concentration at plateau of Cβ-deuteration rate: around 0.3 mM
DsaD/DsaE complex; as restated in conclusions
  KM for association of DsaD and DsaE: 40 µM

B2: DsaD/DsaE complex (Streptomyces scopuliridis) (protein)
chain: MGSSHHHHHHSSGLVPRGSHMASMTGGQQMGRGSEFMHIVTTPVARPLTAQERTERCAAPAFGTAFTEHMVSARWNPEQGWHDAELVPYGPLLLDPATVGLHYGQVVFEGLKAFRSHTGEVAVFRPDAHAERMRASARRLMMPEPPEELFLAAVDALVAQDQEWIPDDPGMSLYLRPILFASERTLALRPAREYRFLLVAFITEGYFGPAQRPVRVWVTDEYSRAAAGGTGAAKCAGNYAGSLLAQEEAQRKGCDQVVWLDPVERNWVEEMGGMNLFFVYEAGGSARLVTPPLTGSLLPGVTRDALLRLAPTLGVPVSEAPLSLEQWRADCASGAITEVFACGTAARISPVNEVSTKDGSWTIGAGAPAEGGVAAGEVTGRLSAALFGIQRGELPDSHSWMRPVSPARQSAIT
[3]; other: 5 equiv. of DsaE (5:1 DsaE:DsaD)
  Km: 200 ± 10 µM
[3]; other: 50 equiv. of DsaE (50:1 DsaE:DsaD)
  Km: 300 ± 90 µM
[3]; other: one equivalent of DsaE, 3 μM DsaD
  Km: 2400 ± 680 µM
[3]; other: with DsaE bound
  Km: 120 ± 20 µM
